pIC50: −log10 of the molar value.
What was measured:
[1] = target: T1, BCRP (hBCRP) (Homo sapiens, UniProt Q9UNQ0); assay: Efflux ratio in BCRP transfected MDCKII canine P-gp knockout cells; assay type: in vitro ADME; conditions: Papp(B−A)/Papp(A−B), read-out: Efflux ratio MDCKII-hBCRP knock-in,canine pg-P KO
T1 construct: expressed in transfected cells; host or cells: MDCKII (canine kidney) cells, canine P-gp knockout, transfected with BCRP
T1 sequence (Q9UNQ0 1-655): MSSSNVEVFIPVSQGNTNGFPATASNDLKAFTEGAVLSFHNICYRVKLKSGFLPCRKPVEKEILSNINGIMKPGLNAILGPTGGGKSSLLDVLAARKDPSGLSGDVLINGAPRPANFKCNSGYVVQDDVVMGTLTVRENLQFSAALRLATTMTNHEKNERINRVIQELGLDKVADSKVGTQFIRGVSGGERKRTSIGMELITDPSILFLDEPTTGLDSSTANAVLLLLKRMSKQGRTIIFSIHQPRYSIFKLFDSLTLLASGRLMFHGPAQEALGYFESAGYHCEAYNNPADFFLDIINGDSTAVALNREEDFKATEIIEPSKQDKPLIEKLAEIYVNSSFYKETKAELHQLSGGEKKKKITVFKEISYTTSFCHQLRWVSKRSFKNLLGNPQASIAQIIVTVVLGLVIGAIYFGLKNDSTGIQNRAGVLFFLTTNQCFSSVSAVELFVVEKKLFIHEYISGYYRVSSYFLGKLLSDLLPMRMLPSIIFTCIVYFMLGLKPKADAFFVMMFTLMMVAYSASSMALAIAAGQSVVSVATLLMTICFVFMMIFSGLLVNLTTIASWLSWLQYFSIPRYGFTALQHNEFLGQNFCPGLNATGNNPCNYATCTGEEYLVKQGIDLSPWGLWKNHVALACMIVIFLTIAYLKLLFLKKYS
Procedure: (§1) BCRP transfected MDCKII canine P-gp knockout cell line was cultured and plated according to manufacturer's recommendations.
(§2) Both positive and negative controls were used to assess functionality of P-gp or BCRP efflux in the assays. Stock solutions for assay controls and the test article were prepared in DMSO for final test concentrations of 10 and 1 μM, respectively. Final organic concentration in the assay was 1%. All dosing solutions contained 10 μM lucifer yellow to monitor LLC-PK1 or MDCKII cell monolayer integrity.
(§3) For the apical to basolateral determination (A to B), 75 μL of the test article in transport buffer were added to the apical side of the individual transwells and 250 μL of basolateral media, without compound or lucifer yellow, were added to each well. For the basolateral to apical determination (B to A), 250 μL of test article in transport buffer were added to each well and 75 μL transport buffer, without compound or lucifer yellow, were added to each transwell. All tests were performed in triplicate, and each compound was tested for both apical to basolateral and basolateral to apical transport. The plates were incubated for 2 hours on a Lab-Line Instruments Titer Orbital Shaker (VWR, West Chester, PA) at 50 rpm and 37° C. with 5% CO2. All culture plates were removed from the incubator and 50 μL of media were removed from the apical and basolateral portion of each well and added to 150 μL of 1 μM labetalol in 2:1 acetonitrile (acetonitrile): H2O, v/v.
(§4) The plates were read using a Molecular Devices (Sunnyvale, CA) Gemini Fluorometer to evaluate the lucifer yellow concentrations at excitation/emission wavelengths of 425/535 nm. These values were accepted when found to be below 2% for apical to basolateral and 5% basolateral to apical flux across the MDR1-transfected LLC-PK1 or BCRP-transfected MDCKII cell monolayers. The plates were sealed and the contents of each well analyzed by LC-MS/MS. The compound concentrations were determined from the ratio of the peak areas of the compound to the internal standard (labetalol) in comparison to the dosing solution.
(§5) The LC-MS/MS system was comprised of an HTS-PAL autosampler (Leap Technologies, Carrboro, NC), an HP1200 HPLC (Agilent, Palo Alto, CA), and a MDS Sciex 4000 Q Trap system (Applied Biosystems, Foster City, CA). […] The total run time, including re-equilibration, for a single injection was 1.2 minutes. Mass spectrometric detection of the analytes was accomplished using the ion spray positive mode. Analyte responses were measured by multiple reaction monitoring (MRM) of transitions unique to each compound (the protonated precursor ion and selected product ions for each test article and m/z 329 to m/z 162 for labetalol, the internal standard).
(§6) An efflux ratio is calculated from the mean apical to basolateral (A−B) Papp data and basolateral to apical (B−A) Papp data: Efflux ratio=Papp(B−A)/Papp(A−B)

[2] = target: T2, P-gp (MDR1) (Homo sapiens, UniProt P08183); assay: Efflux ratio in MDR1 transfected LLC-PK1 cells; assay type: in vitro ADME; conditions: pig, Papp(B−A)/Papp(A−B)
T2 construct: expressed in transfected cells; host or cells: LLC-PK1 (porcine kidney) cells transfected with MDR1
Procedure: (§7) Both LLC-PK1 and MDR1 transfected LLC-PK1 cells were cultured and plated according to manufacturer's recommendations with the exception that the passage media contained only 2% fetal bovine serum to extend passage time out to seven days.
as §2, §3, §4, §5, §6

[3] = MDR1 LLC-PK1 and BCRP MDCKII Permeability Assay: permeability coefficient (Papp); assay type: in vitro ADME; conditions: MDCK, test article 1 μM, 37° C.
Procedure: as §7, §1, §2, §3, §4, §5

[4] = tested on: ERK1/2(Thr202/Tyr204) phosphorylation (MEK-dependent) in A375 cells; assay: Cellular Phospho-p44/42 MAPK (Erk1/2) (Thr202/Tyr204) Assay; assay type: cell-based; conditions: Homo sapiens, A-375, 1-hour incubation, pERK1/2 (Thr202/Tyr204) In-Cell Western normalized to GAPDH
Procedure: Inhibition of ERK1/2(Thr202/Tyr204) phosphorylation was determined by the following cellular assay, which comprises incubating cells with a compound for 1 hour and quantifying pERK signal by In-Cell Western on fixed cells and normalizing to GAPDH signal. A375 cells were obtained from the ATCC and grown in DMEM supplemented with 10% fetal bovine serum, penicillin/streptomycin, Glutamax®, non-essential amino acids, and sodium pyruvate. Cells were plated in 96-well plates at 30,000 cells/well and allowed to attach overnight at 37° C./5% CO2. Cells were treated with compounds prepared as a 10-point, 1:3 dilution series (range: 20 μM-0.05 nM; maximum concentration varied from 20 μM-1 μM), with a final DMSO concentration of 0.5%. Control wells contained either 0.5% DMSO alone (no inhibition control) or 1 μM of a potent control compound (complete inhibition control). After a 1-hour incubation, cells were fixed in 3.7% formaldehyde in dPBS (Dulbecco's phosphate-buffered saline) at room temperature for 20 minutes. Cells were then washed with dPBS and permeabilized in 100% MeOH at room temperature for 10 minutes. Following permeabilization, cells were washed in dPBS and incubated in LI-COR Blocking Buffer (LI-COR Biosciences, Cat #927-40000) for 1 hour or longer. Plates were then incubated with an antibody specific for the MEK-dependent ERK1/2 phosphorylation sites, threonine 202 and tyrosine 204 (Cell Signaling Technologies; Cat #9101), downstream of MEK in the MAP kinase signal transduction pathway, as well as GAPDH (Millipore; Cat #MAB374). pErk1/2 (Thr202/Tyr204) antibody was diluted in LI-COR blocking buffer containing 0.05% Tween-20 at 1:250; GAPDH was diluted at 1:2,500. The plates were incubated overnight at 4° C. After washing with PBS/0.05% Tween-20, the cells were incubated with fluorescently-labeled secondary antibodies (Anti-rabbit-Alexa Flour680, Invitrogen Cat #A21109; Anti-mouse-IRDye800CW, LI-COR Biosciences Cat #926-32210, both at 1:1000 dilution) for 1 hour. Cells were then washed, as above, and analyzed for fluorescence at both 680 and 800 nm wavelengths using the Odyssey CLx Infrared Imaging System (LI-COR Biosciences). Phosphorylated Erk1/2 (Thr202/Tyr204) signal was normalized to GAPDH signal for each well.

T2 sequence (P08183 whole entry): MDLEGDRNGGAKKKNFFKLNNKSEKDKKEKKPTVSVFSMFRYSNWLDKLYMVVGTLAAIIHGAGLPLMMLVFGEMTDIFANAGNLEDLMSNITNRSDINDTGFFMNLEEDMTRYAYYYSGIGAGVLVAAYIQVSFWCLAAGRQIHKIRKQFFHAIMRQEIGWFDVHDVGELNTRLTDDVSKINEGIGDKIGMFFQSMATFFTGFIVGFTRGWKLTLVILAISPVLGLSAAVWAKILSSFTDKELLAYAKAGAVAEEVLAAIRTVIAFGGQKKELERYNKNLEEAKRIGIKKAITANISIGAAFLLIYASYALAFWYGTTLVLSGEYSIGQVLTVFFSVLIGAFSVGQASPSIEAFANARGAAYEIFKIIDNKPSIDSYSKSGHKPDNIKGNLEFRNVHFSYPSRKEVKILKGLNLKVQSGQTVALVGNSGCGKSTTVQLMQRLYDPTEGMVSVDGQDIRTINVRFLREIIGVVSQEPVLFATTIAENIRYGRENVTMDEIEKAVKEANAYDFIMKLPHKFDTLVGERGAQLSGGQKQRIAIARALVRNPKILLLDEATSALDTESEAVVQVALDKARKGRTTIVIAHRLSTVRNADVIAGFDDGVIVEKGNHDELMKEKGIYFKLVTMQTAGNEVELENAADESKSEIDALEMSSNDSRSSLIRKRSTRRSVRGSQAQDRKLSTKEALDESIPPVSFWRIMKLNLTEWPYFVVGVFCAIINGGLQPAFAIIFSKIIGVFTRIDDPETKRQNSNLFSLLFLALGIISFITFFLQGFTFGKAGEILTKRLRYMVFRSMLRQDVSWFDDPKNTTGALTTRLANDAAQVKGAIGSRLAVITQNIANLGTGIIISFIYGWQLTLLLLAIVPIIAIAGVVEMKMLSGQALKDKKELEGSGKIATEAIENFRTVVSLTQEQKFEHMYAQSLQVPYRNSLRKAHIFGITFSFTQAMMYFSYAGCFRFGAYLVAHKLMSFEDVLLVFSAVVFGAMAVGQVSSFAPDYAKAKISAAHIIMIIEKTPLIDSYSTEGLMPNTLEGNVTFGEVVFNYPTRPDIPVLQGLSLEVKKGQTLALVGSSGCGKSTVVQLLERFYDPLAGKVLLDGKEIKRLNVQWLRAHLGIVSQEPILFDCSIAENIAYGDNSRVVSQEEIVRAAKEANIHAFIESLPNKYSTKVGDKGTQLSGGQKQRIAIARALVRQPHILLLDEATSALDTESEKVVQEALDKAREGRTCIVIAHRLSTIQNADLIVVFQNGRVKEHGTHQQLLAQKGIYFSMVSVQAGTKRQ

Structure (SMILES)	efflux ratio at 2 h, 1 μM [1]	efflux ratio at 2 h, 1 μM [2]	Papp at 2 h, 1 μM [3] [×10⁻⁶ cm/s]	pIC50 [4]
Cn1c(Nc2ccc(Br)cc2F)c2c(cc1=O)CCN(C1CC1)C2=O [Example 1]	1.1	1.4	27.2	6.25
CCON1CCc2cc(=O)n(C)c(Nc3ccc(Br)cc3F)c2C1=O [Example 3, 8-((4-bromo-2-fluorophenyl)amino)-2-ethoxy-7-methyl-3,4-dihydro-2,7-naphthyridine-1,6(2H,7H)-dione]	0.9	1	46.2	6.34
CSc1ccc(Nc2c3c(cc(=O)n2C)CCN(C2CC2)C3=O)c(F)c1 [Example 4, 2-cyclopropyl-8-((2-fluoro-4-(methylthio)phenyl)amino)-7-methyl-3,4-dihydro-2,7-naphthyridine-1,6(2H,7H)-dione]	1.1	1.3	26.1	7.13
Cn1c(Nc2ccc(I)cc2F)c2c(cc1=O)CCN(C1CC1)C2=O [Example 5, 2-cyclopropyl-8-((2-fluoro-4-iodophenyl)amino)-7-methyl-3,4-dihydro-2,7-naphthyridine-1,6(2H,7H)-dione]	1	1.6	27.8	7.70
Cn1c(Nc2ccc(I)cc2Cl)c2c(cc1=O)CCN(OCCO)C2=O [Example 9, 8-((2-chloro-4-iodophenyl)amino)-2-(2-hydroxyethoxy)-7-methyl-3,4-dihydro-2,7-naphthyridine-1,6(2H,7H)-dione]	3.2	7.7	27.1	8.52
CC(C)c1ccc(Nc2c3c(cc(=O)n2C)CCN(OCCO)C3=O)c(F)c1 [Example 18, 8-((2-fluoro-4-isopropylphenyl)amino)-2-(2-hydroxyethoxy)-7-methyl-3,4-dihydro-2,7-naphthyrdine-1,6(2H,7H)-dione]	2	2.3		7.41
Cc1c2c(c(Nc3ccc(Br)cc3F)n(C)c1=O)C(=O)NCC2 [Example 47, 8-((4-bromo-2-fluorophenyl)amino)-5,7-dimethyl-3,4-dihydro-2,7-naphthyridine-1,6(2H,7H)-dione]		1.3	31.5	7.01

Now from value to molecule, other results behind:

efflux ratio at 2 h, 1 μM [1]	efflux ratio at 2 h, 1 μM [2]	Papp at 2 h, 1 μM [3] [×10⁻⁶ cm/s]	Structure (SMILES)	pIC50 [4]
	3	26.9	CSc1ccc(Nc2c3c(c(C)c(=O)n2C)CCN(OCCO)C3=O)c(F)c1 [Example 61, 8-((2-fluoro-4-(methylthio)phenyl)amino)-2-(2-hydroxyethoxy)-5,7-dimethyl-3,4-dihydro-2,7-naphthyridine-1,6(2H,7H)-dione]	7.96
	5	26.1	Cc1c2c(c(Nc3ccc(OC(F)F)cc3F)n(C)c1=O)C(=O)N(OCCO)CC2 [Example 62, 8-((4-(difluoromethoxy)-2-fluorophenyl)amino)-2-(2-hydroxyethoxy)-5,7-dimethyl-3,4-dihydro-2,7-naphthyridine-1,6(2H,7H)-dione]	7.77
0.8		12.5	CSc1ccc(Nc2c3c(cc(=O)n2C)C(c2ccccc2)CNC3=O)c(F)c1 (centres unmarked) [Example 65, 8-((2-fluoro-4-(methylthio)phenyl)amino)-7-methyl-4-phenyl-3,4-dihydro-2,7-naphthyridine-1,6(2H,7H)-dione]	8.70
1		24.9	CC1CNC(=O)c2c1cc(=O)n(C)c2Nc1ccc(Br)cc1F (centres unmarked) [Example 66, 8-((4-bromo-2-fluorophenyl)amino)-4,7-dimethyl-3,4-dihydro-2,7-naphthyrdine-1,6(2H,7H)-dione]	7.57
1.1		28.3	CSc1ccc(Nc2c3c(cc(=O)n2C)C(C)CNC3=O)c(F)c1 (centres unmarked) [Example 67, 8-((2-fluoro-4-(methylthio)phenyl)amino)-4,7-dimethyl-3,4-dihydro-2,7-naphthyrdine-1,6(2H,7H)-dione]	8.10
2.5		18.7	CC1CN(OCCO)C(=O)c2c1cc(=O)n(C)c2Nc1ccc(Br)cc1F (centres unmarked) [Example 68, 8-((4-bromo-2-fluorophenyl)amino)-2-(2-hydroxyethoxy)-4,7-dimethyl-3,4-dihydro-2,7-naphthyridine-1,6(2H,7H)-dione]	8.52
2.3		19.6	CSc1ccc(Nc2c3c(cc(=O)n2C)C(C)CN(OCCO)C3=O)c(F)c1 (centres unmarked) [Example 69, 8-((2-fluoro-4-(methylthio)phenyl)amino)-2-(2-hydroxyethoxy)-4,7-dimethyl-3,4-dihydro-2,7-naphthyridine-1,6(2H,7H)-dione]	8.70
